Laboratory results published in the NIST ThermoML archive (doi:10.1016/j.jct.2012.11.011).
± gives the expanded uncertainty stated by the source.

Assay: xn = mol fraction of the nth substance listed
Conditions: Liquid, Vibrating tube method

COC(=O)OC [dimethyl carbonate] + CCCCCCCC
mass density [kg/m3]
Conditions | x1 = 0.0535 | x1 = 0.0978 | x1 = 0.3935 | x1 = 0.496 | x1 = 0.5475 | x1 = 0.5937 | x1 = 0.7002 | x1 = 0.8013 | x1 = 0.8979 | x1 = 0.9502
288.15 K, 100 kPa | 716.4 ± 0.3 | 723.8 ± 0.3 | 791.6 ± 0.3 | 822.9 ± 0.3 | 840.9 ± 0.3 | 854.9 ± 0.3 | 899.6 ± 0.3 | 941.7 ± 0.3 | 1005 ± 0.3 | 1036.8 ± 0.4
288.15 K, 5000 kPa | 719.8 ± 0.4 | 727.9 ± 0.3 | 796.9 ± 0.3 | 827.5 ± 0.3 | 844.6 ± 0.3 | 862 ± 0.3 | 904.6 ± 0.3 | 952.4 ± 0.3 | 1009 ± 0.3 | 1043.2 ± 0.4
288.15 K, 10000 kPa | 723.6 ± 0.4 | 731.9 ± 0.4 | 801.1 ± 0.4 | 831.8 ± 0.4 | 849 ± 0.4 | 866.2 ± 0.4 | 908.9 ± 0.4 | 956.9 ± 0.4 | 1013.3 ± 0.4 | 1047.5 ± 0.4
288.15 K, 20000 kPa | 730.9 ± 0.5 | 739.3 ± 0.5 | 808.8 ± 0.4 | 839.6 ± 0.4 | 857 ± 0.4 | 874.3 ± 0.4 | 917 ± 0.4 | 965 ± 0.4 | 1021.7 ± 0.4 | 1055.7 ± 0.4
288.15 K, 30000 kPa | 737.5 ± 0.6 | 745.8 ± 0.5 | 816 ± 0.5 | 846.9 ± 0.4 | 864.3 ± 0.4 | 881.6 ± 0.4 | 924.4 ± 0.4 | 972.5 ± 0.4 | 1029.1 ± 0.4 | 1063.1 ± 0.4
288.15 K, 40000 kPa | 743.7 ± 0.6 | 752 ± 0.6 | 822.8 ± 0.5 | 853.8 ± 0.5 | 871.2 ± 0.5 | 888.7 ± 0.4 | 931.6 ± 0.4 | 979.7 ± 0.4 | 1036.3 ± 0.4 | 1070.4 ± 0.4
298.15 K, 100 kPa | 707.4 ± 0.3 | 715.3 ± 0.3 | 782.6 ± 0.3 | 812.6 ± 0.3 | 829.5 ± 0.3 | 846.5 ± 0.3 | 888.6 ± 0.3 | 936 ± 0.3 | 992.1 ± 0.3 | 1025.9 ± 0.4
298.15 K, 5000 kPa | 712.2 ± 0.4 | 720.2 ± 0.4 | 787.8 ± 0.3 | 817.9 ± 0.3 | 834.9 ± 0.3 | 851.7 ± 0.3 | 893.9 ± 0.3 | 941.4 ± 0.3 | 997.3 ± 0.3 | 1031.1 ± 0.4
298.15 K, 10000 kPa | 715.9 ± 0.4 | 724.1 ± 0.4 | 791.8 ± 0.4 | 822 ± 0.4 | 839 ± 0.4 | 856.1 ± 0.4 | 898.1 ± 0.4 | 945.6 ± 0.3 | 1001.5 ± 0.3 | 1035.3 ± 0.4
298.15 K, 20000 kPa | 723.6 ± 0.5 | 731.7 ± 0.5 | 800.1 ± 0.4 | 830.4 ± 0.4 | 847.5 ± 0.4 | 864.6 ± 0.4 | 906.8 ± 0.4 | 954.2 ± 0.4 | 1010.1 ± 0.3 | 1043.7 ± 0.4
298.15 K, 30000 kPa | 730.5 ± 0.6 | 738.7 ± 0.6 | 807.7 ± 0.5 | 838.1 ± 0.4 | 855.3 ± 0.4 | 872.4 ± 0.4 | 914.8 ± 0.4 | 962.1 ± 0.4 | 1018 ± 0.4 | 1051.7 ± 0.4
298.15 K, 40000 kPa | 736.8 ± 0.7 | 745.1 ± 0.6 | 814.6 ± 0.5 | 845.1 ± 0.5 | 862.5 ± 0.5 | 879.6 ± 0.4 | 922 ± 0.4 | 969.7 ± 0.4 | 1025.6 ± 0.4 | 1059.1 ± 0.4
308.15 K, 100 kPa | 699.2 ± 0.3 | 706.9 ± 0.3 | 772.9 ± 0.3 | 802.3 ± 0.3 | 819 ± 0.3 | 835.7 ± 0.3 | 877.3 ± 0.3 | 924.1 ± 0.3 | 979.6 ± 0.3 | 1013.1 ± 0.4
308.15 K, 5000 kPa | 704 ± 0.4 | 711.8 ± 0.4 | 778.1 ± 0.3 | 807.6 ± 0.3 | 824.2 ± 0.3 | 841 ± 0.3 | 882.6 ± 0.3 | 929.2 ± 0.3 | 984.6 ± 0.3 | 1018.1 ± 0.4
308.15 K, 10000 kPa | 708.3 ± 0.4 | 716.2 ± 0.4 | 782.8 ± 0.4 | 812.4 ± 0.4 | 829.1 ± 0.4 | 845.9 ± 0.4 | 887.5 ± 0.3 | 934.4 ± 0.3 | 989.6 ± 0.3 | 1023.1 ± 0.4
308.15 K, 20000 kPa | 716.3 ± 0.5 | 724.3 ± 0.5 | 791.5 ± 0.4 | 821.3 ± 0.4 | 838.1 ± 0.4 | 854.9 ± 0.4 | 896.6 ± 0.4 | 943.4 ± 0.4 | 998.7 ± 0.3 | 1032.1 ± 0.4
308.15 K, 30000 kPa | 723.7 ± 0.6 | 731.6 ± 0.6 | 799.6 ± 0.5 | 829.5 ± 0.5 | 846.4 ± 0.4 | 863.3 ± 0.4 | 905 ± 0.4 | 951.9 ± 0.4 | 1007.1 ± 0.3 | 1040.4 ± 0.4
308.15 K, 40000 kPa | 730.4 ± 0.7 | 738.4 ± 0.7 | 806.9 ± 0.5 | 836.9 ± 0.5 | 853.9 ± 0.5 | 870.8 ± 0.5 | 912.8 ± 0.4 | 959.7 ± 0.4 | 1015 ± 0.4 | 1048.3 ± 0.4

CCCCCCCCCC [decane] + COC(=O)OC
mass density [kg/m3]
Conditions | x2 = 0.0438 | x2 = 0.11 | x2 = 0.2348 | x2 = 0.3516 | x2 = 0.3944 | x2 = 0.557 | x2 = 0.8035 | x2 = 0.95
288.15 K, 100 kPa | 739 ± 0.3 | 749 ± 0.3 | 769.2 ± 0.3 | 792 ± 0.3 | 801.9 ± 0.3 | 844.5 ± 0.4 | 944.4 ± 0.4 | 1034.2 ± 0.4
288.15 K, 5000 kPa | 742.7 ± 0.3 | 753.6 ± 0.3 | 773.1 ± 0.3 | 796 ± 0.3 | 805.9 ± 0.3 | 848.7 ± 0.4 | 948.8 ± 0.4 | 1038.5 ± 0.4
288.15 K, 10000 kPa | 746.2 ± 0.4 | 757.2 ± 0.4 | 776.8 ± 0.4 | 799.9 ± 0.4 | 809.8 ± 0.4 | 852.6 ± 0.4 | 953.1 ± 0.4 | 1042.8 ± 0.4
288.15 K, 20000 kPa | 752.7 ± 0.5 | 763.9 ± 0.4 | 783.7 ± 0.4 | 807 ± 0.4 | 817 ± 0.4 | 858.8 ± 0.4 | 963.1 ± 0.4 | 1050.8 ± 0.4
288.15 K, 30000 kPa | 758.8 ± 0.5 | 769.8 ± 0.5 | 790 ± 0.5 | 813.4 ± 0.5 | 823.5 ± 0.5 | 865 ± 0.4 | 971.2 ± 0.4 | 1058.2 ± 0.4
288.15 K, 40000 kPa | 764.3 ± 0.6 | 775.8 ± 0.6 | 796.1 ± 0.6 | 819.7 ± 0.5 | 829.3 ± 0.5 | 872.6 ± 0.5 | 977.8 ± 0.4 | 1065.3 ± 0.4
298.15 K, 100 kPa | 731.3 ± 0.3 | 741.9 ± 0.3 | 760.8 ± 0.3 | 783.2 ± 0.3 | 793.3 ± 0.3 | 831.4 ± 0.3 | 932.1 ± 0.3 | 1021.4 ± 0.4
298.15 K, 5000 kPa | 735.6 ± 0.3 | 746.2 ± 0.3 | 765.5 ± 0.3 | 787.9 ± 0.3 | 798 ± 0.3 | 836.7 ± 0.3 | 937.6 ± 0.3 | 1026.5 ± 0.4
298.15 K, 10000 kPa | 739 ± 0.4 | 749.7 ± 0.4 | 769 ± 0.4 | 791.4 ± 0.4 | 801.8 ± 0.4 | 840.5 ± 0.4 | 942.1 ± 0.3 | 1030.7 ± 0.4
298.15 K, 20000 kPa | 745.9 ± 0.5 | 756.6 ± 0.4 | 776.2 ± 0.4 | 799 ± 0.4 | 809.4 ± 0.4 | 848.3 ± 0.4 | 951.1 ± 0.4 | 1039 ± 0.4
298.15 K, 30000 kPa | 752.2 ± 0.5 | 763.1 ± 0.5 | 782.9 ± 0.5 | 805.9 ± 0.5 | 816.6 ± 0.5 | 856.1 ± 0.4 | 959.2 ± 0.4 | 1047 ± 0.4
298.15 K, 40000 kPa | 758.1 ± 0.6 | 769 ± 0.6 | 789 ± 0.6 | 812.2 ± 0.5 | 823 ± 0.5 | 863.2 ± 0.5 | 966.8 ± 0.4 | 1054.4 ± 0.4
308.15 K, 100 kPa | 723.6 ± 0.3 | 733.9 ± 0.3 | 752.5 ± 0.3 | 774.3 ± 0.3 | 783.8 ± 0.3 | 820.2 ± 0.3 | 920.7 ± 0.3 | 1008.8 ± 0.3
308.15 K, 5000 kPa | 727.7 ± 0.4 | 738.2 ± 0.3 | 756.9 ± 0.3 | 778.9 ± 0.3 | 788.5 ± 0.3 | 825.6 ± 0.3 | 926.3 ± 0.3 | 1013.8 ± 0.4
308.15 K, 10000 kPa | 731.7 ± 0.4 | 742.2 ± 0.4 | 761 ± 0.4 | 783.2 ± 0.4 | 792.8 ± 0.4 | 830.8 ± 0.4 | 931.6 ± 0.3 | 1018.5 ± 0.4
308.15 K, 20000 kPa | 739 ± 0.5 | 749.7 ± 0.5 | 768.6 ± 0.4 | 790.9 ± 0.4 | 801.1 ± 0.4 | 840 ± 0.4 | 941.1 ± 0.3 | 1027.6 ± 0.4
308.15 K, 30000 kPa | 745.6 ± 0.5 | 756.4 ± 0.5 | 775.6 ± 0.5 | 798.3 ± 0.5 | 808.4 ± 0.5 | 848.4 ± 0.4 | 949.7 ± 0.3 | 1035.9 ± 0.4
308.15 K, 40000 kPa | 751.8 ± 0.6 | 762.6 ± 0.6 | 782.1 ± 0.6 | 804.9 ± 0.5 | 815.3 ± 0.5 | 856.1 ± 0.5 | 957.8 ± 0.4 | 1043.7 ± 0.4
